In publication PMC7000730, “CAPA neuropeptides and their receptor form an anti-diuretic hormone signaling system in the human disease vector, Aedes aegypti” (Scientific Reports, 2020):
“Also recorded” adds a separate entry of the source. Where a name gives a salt, the structure may show the parent alone. Read-outs that look alike come from different tables or passages of the source. Non-standard residues stand in square brackets, D forms with d. Residues, ends and D or L forms follow the SMILES beside them. No end group written: not given here. pGlu = O=C1CC[C@@H](C(=O)O)N1

What was measured:
[1] = target: T1, A. aegypti CAPA receptor (CAPAr, anti-diuretic hormone receptor) (Aedes aegypti, UniProt A0A7D5D2Z2); test: Heterologous receptor functional activation bioluminescence assay (CHO-K1 aequorin); assay type: cell-based; details: for CAPAr activation (in words): calcium-based luminescence
T1 sequence (A0A7D5D2Z2 1-712): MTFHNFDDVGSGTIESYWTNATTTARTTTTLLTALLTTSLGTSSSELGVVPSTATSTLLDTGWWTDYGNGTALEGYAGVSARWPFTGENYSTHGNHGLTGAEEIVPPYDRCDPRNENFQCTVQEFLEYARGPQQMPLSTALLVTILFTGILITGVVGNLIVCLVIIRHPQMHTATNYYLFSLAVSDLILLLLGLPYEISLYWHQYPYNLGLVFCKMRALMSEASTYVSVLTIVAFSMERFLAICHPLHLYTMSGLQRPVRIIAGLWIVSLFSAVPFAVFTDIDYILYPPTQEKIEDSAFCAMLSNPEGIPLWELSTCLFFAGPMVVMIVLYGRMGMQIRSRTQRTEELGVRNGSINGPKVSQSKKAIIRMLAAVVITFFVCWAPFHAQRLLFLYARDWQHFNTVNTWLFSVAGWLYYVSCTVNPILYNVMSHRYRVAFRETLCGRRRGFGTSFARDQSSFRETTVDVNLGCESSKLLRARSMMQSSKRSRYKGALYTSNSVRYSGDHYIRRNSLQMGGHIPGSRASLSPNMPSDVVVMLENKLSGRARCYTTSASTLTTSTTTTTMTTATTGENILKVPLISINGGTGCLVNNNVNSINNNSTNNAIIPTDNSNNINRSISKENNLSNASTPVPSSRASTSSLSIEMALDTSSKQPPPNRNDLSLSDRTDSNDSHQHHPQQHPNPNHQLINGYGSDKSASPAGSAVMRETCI
Method: (B) Raw luminescent response following application of each CAPA gene-derived neuropeptide and representative neuropeptides belonging to several insect families, each tested at 10 μM. For peptide sequence information and species origin, see Table S3. […] Data represent the mean ± standard error (n = 3).
The open reading frame of the cloned A. aegypti CAPAr was inserted into pcDNA3.1+ mammalian expression vector following procedures described previously[60],[92],[93]. Using a recombinant CHO-K1 cell line stably expressing aequorin[59], A. aegypti CAPAr was transiently expressed following growth and transfection conditions as reported recently. Cells were harvested for the functional assay at 48 hours post-transfection by detaching cells from the culture flask using 5 mM EDTA in Dulbecco’s PBS (DPBS; Wisent Corp., St. Bruno, QC) and later cells were resuspended at a concentration of 10^6–10^7 cells/mL in assay media and incubated with coelenterazine h as described previously. Prior to running the functional assay, cells were diluted 10-fold in assay media and left to incubate for one additional hour. Several endogenous as well as other insect neuropeptides representing a variety of neuropeptide families (see Table S2) were tested by preparing serial dilutions of each peptide in assay media. All peptides were commercially synthesized at a purity of >90% (Genscript, Piscataway, NJ) and 1 mM stock solutions were prepared by dissolving 1 mg of each peptide in water or DMSO as appropriate based on specific peptide characteristics. Recombinant CHO-K1 cells expressing the A. aegypti CAPAr were loaded into each well of multi-well plate using an automated injector module linked to a Synergy 2 Multi Mode Microplate Reader (BioTek, Winooski, VT) which measured kinetic luminescent response from each well for 20 sec immediately following cell loading onto the different peptides at various doses. Data was compiled in Microsoft Excel and analyzed in GraphPad Prism 8.0 (GraphPad Software, San Diego, CA).
Table S2. List and primary structure of several insect neuropeptides tested for functional activation of the mosquito anti-diuretic hormone (CAPA) receptor using heterologous bioassay.

[2] = system: isolated MTs of adult female A. aegypti (diuretic hormone-stimulated fluid secretion); test: Malpighian tubule fluid secretion assay (modified Ramsay assay); set-up: species or system Aedes aegypti; details: for effect of inhibitor on inhibition by AedaeCAPA-1 and cGMP, 5HT-stimulated MTs: 5HT 100 nmol l^-1, AedaeCAPA-1 1 fmol l^-1 or cGMP (8 bromo-cGMP) 100 nmol l^-1, L-NAME 2 µmol l^-1 or KT5823 5 µmol l^-1, 60 min
Method: To further understand the anti-diuretic signaling pathway involving the CAPA neuroendocrine system, pharmacological blockers, including inhibitors of NOS (L-NAME) and PKG (KT5823), were tested against diuretic hormone-stimulated MTs alone and together with either AedaeCAPA-1 or cGMP.
Figure 5 Effect of a nitric oxide synthase (NOS) inhibitor (L-NAME) on the anti-diuretic activity of AedaeCAPA-1 and cGMP in DromeDH31-stimulated A. aegypti MTs. The NOS inhibitor, L-NAME, was applied against (A) DromeDH31- and (B) 5HT-stimulated MTs alone or in the presence of either AedaeCAPA-1 or cGMP. Secretion rates are presented as mean ± SEM, n = 17–22.
Figure 6 Effect of a protein kinase G (PKG) inhibitor (KT5823) on the anti-diuretic activity of AedaeCAPA-1 and cGMP in DromeDH31-stimulated A. aegypti MTs. The PKG inhibitor, KT5823, was applied against (A) DromeDH31- and (B) 5HT-stimulated MTs alone or in the presence of either AedaeCAPA-1 or cGMP. Secretion rates are presented as mean ± SEM, n = 16–25.
In order to determine fluid secretion rates, a modified Ramsay secretion assay[85] was performed on isolated MTs of 3–6 day old adult female A. aegypti, as reported recently. Tissue dissections were performed under physiological saline prepared as described previously[86] diluted 1:1 with Schneider’s Insect Medium (Sigma-Aldrich, Oakville, ON). Individual MTs were removed and transferred to a Sylgard-lined Petri dish containing 20 μl saline bathing droplets immersed in hydrated mineral oil to prevent evaporation. The proximal end of the MT was removed from the bathing saline and wrapped around a Minuten pin to allow for secretion measurements. Dosages of 25 nmol l^−1 DromeDH31[22] or 100 nmol l^−1 5HT[97],[98] alone or in combination with 1 fmol l^−1 AedaeCAPA-1[37] were applied to the isolated MTs as previously described. […] To investigate the effects of the pharmacological blockers, a nitric oxide synthase (NOS) inhibitor, Nω-Nitro-L-arginine methyl ester hydrochloride (L-NAME), and protein kinase G (PKG) inhibitor, KT5823, were used against 5-HT- and DH31-stimulated MTs. Dosages of 2 µmol l^−1 L-NAME (manufacturer’s recommended dose) and 5 µmol l^−1 KT5823[36] were applied to the MTs. The inhibitors were treated in conjunction with 1 fmol l^−1 AedaeCAPA-1 and/or 100 nmol l^−1 cyclic guanosine monophosphate, 8 bromo-cGMP (cGMP)[37] (Sigma-Aldrich, Oakville, ON, Canada). Unstimulated controls consisted of tubules bathed in physiological saline with no diuretic application. Following a 60-minute incubation period, the size of the secreted droplet was measured using an eyepiece micrometer and fluid secretion rate (FSR) was calculated as described previously. […]

[3] = system: isolated MTs of adult female A. aegypti (diuretic hormone-stimulated fluid secretion); details: ref [37]; cited from earlier work
From the text: The influx of Ca^2+ through these channels activates NOS, causing the production of NO, which subsequently activates guanylate cyclase to increase levels of cGMP in the MTs[44]. Ultimately, the activation of the NO/cGMP pathway stimulates the apical V-type H^+-A ...

[4] = CHO-K1 cells stably expressing aequorin, A. aegypti CAPAr transiently expressed (48 h post-transfection), coelenterazine h, kinetic luminescence for 20 sec, dose-response, n = 3, read-out: EC50 on CAPAr
[5] = n = 17–22 (L-NAME), 16–25 (KT5823)
[6] = CHO-K1-aequorin cells expressing CAPAr, luminescence, tested up to 10 μM, read-out: EC50 on CAPAr (NA = no detectable activity)

Question: Which “CAPAr activation (in words)” value ([1]; CHO-K1-aequorin cells expressing CAPAr) does the source give for `CC(C)C[C@H](NC(=O)CNC(=O)[C@@H]1CCC(=O)N1)C(=O)N[C@H](C(=O)N1CCC[C@H]1C(=O)N[C@@H](Cc1ccccc1)C(=O)N1CCC[C@H]1C(=O)N[C@@H](CCCNC(=N)N)C(=O)N[C@H](C(N)=O)C(C)C)C(C)C` [CAPA2] ([pGlu]GLVPFPRV-NH2) here?
Answer: potently activate this receptor

Question: And the EC50 [1, 4]?
Answer: 0.00562 µM

Question: What about the “raw luminescent response at 10 μM (in words)” value ([1]; each peptide at 10 μM, vs BSA vehicle control, one-way ANOVA, Tukey, p < 0.01, n = 3) of the same compound?
Answer: no difference in response was observed between the two endogenous CAPA neuropeptides

Question: Which results are given for `COC(=O)[C@@]1(OC)C[C@H]2O[C@]1(C)n1c3ccccc3c3c4c(c5c6ccccc6n2c5c31)C(=O)N(C)C4` [KT5823]?
Answer: effect of inhibitor on inhibition by AedaeCAPA-1 and cGMP, 5HT-stimulated MTs [2, 5]: the inhibitory activity of AedaeCAPA-1 and cGMP on 5HT-stimulated tubules was abolished; effect of inhibitor on inhibition of both DH31- and 5HT-stimulated diuresis ([2]; AedaeCAPA-1 1 fmol l^-1 or cGMP 100 nmol l^-1, KT5823 5 µmol l^-1, 60 min): the inhibition of both DH31- and 5HT stimulated diuresis by AedaeCAPA-1 and cGMP were sensitive to the PKG inhibitor, KT5823; effect of inhibitor on inhibition by both AedaeCAPA-1 and cGMP, DH31-stimulated MTs ([2]; DromeDH31 25 nmol l^-1, AedaeCAPA-1 1 fmol l^-1 or cGMP (8 bromo-cGMP) 100 nmol l^-1, KT5823 5 µmol l^-1, 60 min, n = 16–25): abolished the inhibitory effect of both cGMP and AedaeCAPA-1; also recorded: abolished the anti-diuretic activity of both AedaeCAPA-1 and cGMP, resulting in normal DH31-induced diuresis

Question: With `COC(=O)[C@@H](N)CCCNC(N)=N[N+](=O)[O-]` [L-NAME, Nω-Nitro-L-arginine methyl ester hydrochloride] as the compound, how does the “effect of inhibitor on inhibition by AedaeCAPA-1 and cGMP, 5HT-stimulated MTs” value [2, 5] read?
Answer: neither AedaeCAPA-1 nor cGMP inhibition are influenced by L-NAME; also recorded: L-NAME had no influence on the anti-diuretic activity of AedaeCAPA-1 in 5HT-stimulated MTs

Question: What about the “effect of inhibitor on inhibition by AedaeCAPA-1, DH31-stimulated MTs” value ([2]; DromeDH31 25 nmol l^-1, AedaeCAPA-1 1 fmol l^-1, L-NAME 2 µmol l^-1 or KT5823 5 µmol l^-1, 60 min, n = 17–22 (L-NAME), 16–25 (KT5823)) of the same compound?
Answer: the inhibitory effect of AedaeCAPA-1 was abolished; also recorded: AedaeCAPA-1 mediated inhibition of DH31-stimulated MTs was mitigated in the presence of L-NAME, reducing the anti-diuretic effects observed with AedaeCAPA-1

Question: And the “effect of inhibitor on inhibition by cGMP, DH31-stimulated MTs” value ([2]; DromeDH31 25 nmol l^-1, cGMP (8 bromo-cGMP) 100 nmol l^-1, L-NAME 2 µmol l^-1 or KT5823 5 µmol l^-1, 60 min, n = 17–22 (L-NAME), 16–25 (KT5823))?
Answer: no influence on the inhibitory effect of cGMP; also recorded: did not alter the inhibitory effects of exogenous cGMP

Question: For `Nc1nc2c(nc(Br)n2[C@@H]2O[C@@H]3COP(=O)(O)O[C@H]3[C@H]2O)c(=O)[nH]1` [cGMP, cyclic guanosine monophosphate, 8 bromo-cGMP], which “inhibition of fluid secretion rate (earlier work)” value [3] is on record?
Answer: considerably inhibits fluid secretion rate

Question: With AGNSGANSGMWFGPRL-NH2 [PK1] as the compound, how does the “luminescent response as activity compared to either CAPA peptide” value ([1]; 10 μM (saturating dose), n = 3) read?
Answer: ~ 20%

Question: And the “potency compared to the canonical CAPA ligands” value ([1]; CAPAr in CHO-K1-aequorin cells)?
Answer: over five orders of magnitude lower compared to the canonical CAPA ligands

Question: What about the “CAPAr activation (in words)” value ([1]; CHO-K1-aequorin cells expressing CAPAr, listed as Aedae-PK1) of the same compound?
Answer: low agonist activity

Question: What about the “CAPAr activation (in words)” value ([1]; CHO-K1-aequorin cells expressing CAPAr, listed as pyrokinin 1-related peptide) of the same compound?
Answer: very poor activity compared to the two CAPA peptides

Question: And the “CAPAr activation (in words)” value ([1]; CHO-K1-aequorin cells expressing CAPAr, listed as pyrokinin-1)?
Answer: a significantly higher concentration of pyrokinin-1 was needed to achieve even low level CAPAr activation

Question: What about the EC50 ([1]; CHO-K1 cells stably expressing aequorin, A. aegypti CAPAr transiently expressed (48 h post-transfection), coelenterazine h, kinetic luminescence for 20 sec, tested up to 10 μM, read-out: EC50 on CAPAr) of the same compound?
Answer: > 10 µM

Question: With AWNSLHGGW-NH2 [MIP-7] as the compound, how does the EC50 [1, 6] read?
Answer: > 10 µM

Question: With GPTVGLFAFPRV-NH2 [CAPA1] as the compound, how does the EC50 [1, 4] read?
Answer: 0.00676 µM

Question: Which EC50 [1, 6] does the source give for GYRKPPFNGSIF-NH2 [SIFa] here?
Answer: > 10 µM

Question: With KAVRSPSLRLRF-NH2 [sNPF] as the compound, how does the EC50 [1, 6] read?
Answer: > 10 µM

Question: For NSVVLGKKQRFHSWG-NH2 [kinin], which EC50 [1, 6] is on record?
Answer: > 10 µM

Question: With NTVNFSPRL-NH2 [PK2-1] as the compound, how does the EC50 [1, 6] read?
Answer: > 10 µM

Question: Which EC50 [1, 6] does the source give for SALDKNFMRF-NH2 [FMRFa-1] here?
Answer: > 10 µM

Question: For SPPFAPRL-NH2 [PK2-2], which EC50 [1, 6] is on record?
Answer: > 10 µM
